These results are taken from paper PMC10527105, “Chirality Matters: Fine-Tuning of Novel Monoamine Reuptake Inhibitors Selectivity through Manipulation of Stereochemistry” (Biomolecules, 2023).

Where two headings read alike, the source gives them in different places.

Data set [1] concerns the target T1, noradrenaline transporter/SLC6A2 (NET) (Homo sapiens, UniProt P23975).
T1 construct: expressed in transfected cells; host or cells: HEK293
The settings on record: cells stably expressing NET; ref [35]; read-out: Reuptake Inhibition (IC50 ± SE, µM) NET; cited from earlier work.

Another data set deals with rat cortical neurons. Briefly: Neurite outgrowth assay (Cyprotex). The format is cell-based. The settings on record: for IC50: 72 h. Here is the method:
Neurite outgrowth assay. […] were carried out by Cyprotex (an Evotec Company, Toulouse, France), Study No. CYP2052-R1. For an in-depth description, please refer to the report in the supporting information files. Cryo-preserved rat cortical neurons (QBM Cell Science, R-Cx-500) were quickly thawed and slowly diluted with neurobasal medium supplemented with L-glutamine (Invitrogen, Cat. No. 25030-081), penicillin-streptomycin (Invitrogen, Cat. No. 15140-122), and B27 (NB/B27 medium, Invitrogen, Cat. No. 17504-044). After a gentle centrifugation step, the neurons were resuspended in NB/B27 medium at a density of 4.0 × 10^6 cells/mL. One hour prior to treatment, the neurons were plated in 384-well plates (Corning 354663) pre-coated with a laminin solution (Sigma L2020 1 mg/mL) at a density of 10,000 cells per well. After treatment with test articles and control compounds, the neurons were maintained in a humidified environment at 37 °C with 5% CO2 for 72 h. At the end of the treatment period, the neurons were fixed for 1 h with a 3.7% formaldehyde solution (Acros Organics, 41073-0010). The neurons were washed with phosphate buffered saline (PBS) (SH30264.02) and permeabilized for 10 min with a 0.5% solution of Triton X-100 (Millipore Sigma, X100). After another wash step, the neurons were stained for one hour with Hoechst 33342 (ThermoFisher Scientific, H3570) and the anti-beta III tubulin antibody, Alexa Fluor® 488 conjugate (Millipore Sigma AB15708A4), diluted in a blocking buffer solution (Thermo Scientific, 37525). Upon completion of the staining step, the neurons were washed again, and the plates were sealed in preparation for the imaging process. The neurons were evaluated for neurite outgrowth and cell health using the high-content imaging platform, ArrayScan VTi (Thermo Scientific ArrayScan VTi), with an optimized neuronal profiling bio-application.
This assay assessed cell health and neurite outgrowth utilizing a neuronal profiling bio-application applied to images obtained on an ArrayScan VTi. Valid neuron count, mean neurite average length, and neurite total length per neuron were determined and reported. Raw data were normalized to the vehicle control and reported as a normalized% response. Dose response graphs were generated with GraphPad Prism using a sigmoidal dose-response (variable slope) algorithm.

Data set [2] deals with T2, human dopamine transporter/SLC6A3 (DAT) (Homo sapiens, UniProt Q01959).
T2 construct: expressed in transfected cells; host or cells: HEK293
As to the kind of experiment: Cellular uptake experiments: [3H]-dopamine reuptake inhibition in transporter-expressing HEK293 cells. The data set is classed as cell-based. The settings on record: cells stably expressing DAT, [3H]-dopamine 1 µM, screening cut-off 50 µM. The method, boiled down: (§1)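 Stably transfected HEK293 cells preincubated 5 min with compound, then 1 µM [3H]-substrate for 2.5 min (SERT: 5 min) at 25 °C, pH 7.1 buffer; uptake counted by scintillation. Nonspecific uptake defined with 10 µM mazindol (DAT, NET) or 10 µM clomipramine (SERT).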

In data set [3] the target is T1, noradrenaline transporter/SLC6A2 (NET). Briefly: Cellular uptake experiments: [3H]-noradrenaline reuptake inhibition in transporter-expressing HEK293 cells. The data set is classed as cell-based. The method, boiled down: as §1
Data set [4] has as its target T3, human serotonin transporter/SLC6A4 (SERT) (Homo sapiens, UniProt P31645).
T3 construct: expressed in transfected cells; host or cells: HEK293
Briefly: Cellular uptake experiments: [3H]-serotonin reuptake inhibition in transporter-expressing HEK293 cells. The format is cell-based. The procedure, abridged: as §1

The mark [5] stands for this setting: read-out: Reuptake Inhibition (IC50 ± SE, µM) DAT.
The mark [6] stands for this setting: cells stably expressing SERT; [3H]-serotonin 1 µM; screening cut-off 50 µM; read-out: Reuptake Inhibition (IC50 ± SE, µM) SERT.
Setting [7] is: Reuptake Inhibition (IC50 ± SE, µM) DAT.
Setting [8] is: Reuptake Inhibition (IC50 ± SE, µM) NET, cells stably expressing NET; [3H]-noradrenaline 1 µM; screening cut-off 50 µM.
[9] abbreviates: Reuptake Inhibition (IC50 ± SE, µM) SERT, cells stably expressing SERT; [3H]-serotonin 1 µM; screening cut-off 50 µM.
The mark [10] stands for this setting: read-out: Reuptake Inhibition (IC50 ± SE, µM) NET; cells stably expressing NET; [3H]-noradrenaline 1 µM; screening cut-off 50 µM.
Where [11] appears, read: read-out: Reuptake Inhibition (IC50 ± SE, µM) SERT; cells stably expressing SERT; [3H]-serotonin 1 µM; screening cut-off 50 µM.

T1 sequence (P23975 whole entry): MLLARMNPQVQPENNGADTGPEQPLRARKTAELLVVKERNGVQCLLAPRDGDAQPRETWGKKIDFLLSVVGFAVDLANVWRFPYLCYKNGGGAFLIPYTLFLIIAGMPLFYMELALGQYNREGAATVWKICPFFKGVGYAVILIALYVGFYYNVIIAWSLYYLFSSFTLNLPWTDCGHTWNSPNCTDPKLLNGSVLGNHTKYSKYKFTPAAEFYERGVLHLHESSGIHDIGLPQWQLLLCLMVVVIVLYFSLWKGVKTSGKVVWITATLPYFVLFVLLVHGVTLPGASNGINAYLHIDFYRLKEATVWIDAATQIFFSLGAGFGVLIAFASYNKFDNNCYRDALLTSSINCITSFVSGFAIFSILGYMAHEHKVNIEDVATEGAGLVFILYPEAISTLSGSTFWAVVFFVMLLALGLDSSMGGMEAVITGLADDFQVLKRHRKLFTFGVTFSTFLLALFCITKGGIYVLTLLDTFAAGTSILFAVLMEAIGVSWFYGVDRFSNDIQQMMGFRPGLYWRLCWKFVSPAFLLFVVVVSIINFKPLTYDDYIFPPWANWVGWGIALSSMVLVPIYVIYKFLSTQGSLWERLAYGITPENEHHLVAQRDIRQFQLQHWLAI
T3 sequence (P31645 whole entry): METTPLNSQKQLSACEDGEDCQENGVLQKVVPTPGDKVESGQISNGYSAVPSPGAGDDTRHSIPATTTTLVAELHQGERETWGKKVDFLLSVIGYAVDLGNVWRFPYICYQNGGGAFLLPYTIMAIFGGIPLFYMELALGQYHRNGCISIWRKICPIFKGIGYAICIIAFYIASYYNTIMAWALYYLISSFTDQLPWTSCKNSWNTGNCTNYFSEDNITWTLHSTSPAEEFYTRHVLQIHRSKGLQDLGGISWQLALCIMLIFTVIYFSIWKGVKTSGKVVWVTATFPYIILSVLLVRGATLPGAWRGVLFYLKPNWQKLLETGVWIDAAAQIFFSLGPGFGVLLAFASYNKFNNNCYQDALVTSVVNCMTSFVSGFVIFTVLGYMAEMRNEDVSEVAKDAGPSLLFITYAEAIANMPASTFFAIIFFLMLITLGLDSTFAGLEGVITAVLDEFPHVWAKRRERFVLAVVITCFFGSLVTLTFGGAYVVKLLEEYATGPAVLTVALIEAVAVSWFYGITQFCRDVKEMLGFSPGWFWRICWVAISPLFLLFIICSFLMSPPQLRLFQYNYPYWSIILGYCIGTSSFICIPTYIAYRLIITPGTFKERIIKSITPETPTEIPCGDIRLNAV
T2 sequence (Q01959 whole entry): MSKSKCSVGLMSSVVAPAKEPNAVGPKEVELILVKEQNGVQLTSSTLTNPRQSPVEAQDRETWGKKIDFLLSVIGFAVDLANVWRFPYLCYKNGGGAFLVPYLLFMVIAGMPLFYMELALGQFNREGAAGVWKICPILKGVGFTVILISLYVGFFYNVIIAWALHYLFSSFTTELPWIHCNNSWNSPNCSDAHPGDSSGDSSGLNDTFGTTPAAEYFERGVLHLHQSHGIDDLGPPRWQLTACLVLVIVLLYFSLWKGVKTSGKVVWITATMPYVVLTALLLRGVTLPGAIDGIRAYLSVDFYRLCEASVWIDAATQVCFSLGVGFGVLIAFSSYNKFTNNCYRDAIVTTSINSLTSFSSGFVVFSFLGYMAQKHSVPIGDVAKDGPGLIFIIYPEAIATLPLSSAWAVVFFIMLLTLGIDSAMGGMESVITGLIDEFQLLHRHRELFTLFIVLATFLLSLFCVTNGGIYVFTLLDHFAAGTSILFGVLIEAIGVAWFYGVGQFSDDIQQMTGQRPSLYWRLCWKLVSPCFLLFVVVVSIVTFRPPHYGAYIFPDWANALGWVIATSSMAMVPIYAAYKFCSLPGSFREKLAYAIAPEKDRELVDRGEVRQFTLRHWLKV

With `NC(=O)C[S@@+]([O-])C(c1ccccc1)c1ccccc1` [R-Modafinil], the IC50 in data set [1] was 169 ± 90 µM.
For `COC(=O)Nc1nc2ccc(C(=O)c3cccs3)cc2[nH]1` [Nocodazole, reference compound], the IC50 in the data set on rat cortical neurons (Cortical neurone, rat cortical neurons, read-out: Mean Neurite Avg. Length IC50) came to 0.097 µM; with rat cortical neurons (Cortical neurone, rat cortical neurons, read-out: Neurite Total Length per Neuron IC50), 0.0997 µM; in the data set on rat cortical neurons (Cortical neurone, rat cortical neurons, read-out: Valid Neuron Count IC50), 2.22 µM. Moreover, the “effect on neurite outgrowth in relation to effect on cell viability” value in the data set with rat cortical neurons (rat cortical neurons) is “positive for substantially affecting neurite outgrowth while nominally affecting cell viability”.
With `CN(C)CCCN1c2ccccc2Sc2ccc(Cl)cc21` [Chlorpromazine, reference compound], the IC50 is 9.02 µM in the data set with rat cortical neurons (Rattus norvegicus, Cortical neurone, read-out: Mean Neurite Avg. Length IC50, rat cortical neurons, 72 h); 13.8 µM in the data set with rat cortical neurons (Rattus norvegicus, Cortical neurone, read-out: Neurite Total Length per Neuron IC50, rat cortical neurons, 72 h); 7.99 µM in the data set with rat cortical neurons (Rattus norvegicus, Cortical neurone, read-out: Valid Neuron Count IC50, rat cortical neurons, 72 h); 9.02 µM with rat cortical neurons (read-out: Mean Neurite Avg. Length IC50, rat cortical neurons). Moreover, in the data set with rat cortical neurons (rat cortical neurons), the “effect on neurite outgrowth in relation to effect on cell viability” value was “not independent of its effect on cell viability”.
In the case of `Cc1ccccc1C(c1ccccc1)[S+]([O-])Cc1cccs1` (stereo not shown) [Compound 6l, 2-(((phenyl(o-tolyl)methyl)sulfinyl)methyl)thiophene], the IC50 in data set [2] (setting [5]) is over 50 µM; in data set [3] (cells stably expressing NET; [3H]-noradrenaline 1 µM; screening cut-off 50 µM; read-out: Reuptake Inhibition (IC50 ± SE, µM) NET), over 50 µM; in data set [4] (setting [6]), over 50 µM.
For the compound `[O-][S@+](Cc1cccs1)[C@@H](c1ccccc1)c1ccc(Cl)cc1` [Compound 6f, (R,S)-2-((((4-chlorophenyl)(phenyl)methyl)sulfinyl)methyl)thiophene], the results for the IC50 in data set [2] (setting [7]), in data set [3] (setting [8]) and in data set [4] (setting [9]) were 46 ± 1 µM, over 50 µM and over 50 µM, respectively.
With `[O-][S+](Cc1cccs1)C(c1ccccc1)c1ccccc1I` (stereo not shown) [Compound 8i, 2-((((2-iodophenyl)(phenyl)methyl)sulfinyl)methyl)thiophene], the values for the IC50 in data set [2] (setting [7]), in data set [3] (setting [10]) and in data set [4] (setting [11]) were 9.6 ± 1.2 µM, over 50 µM and over 50 µM, respectively.
For the compound `COc1ccc([C@@H](c2ccccc2)[S@@+]([O-])Cc2cccs2)cc1` [Compound 7t, (S,R)-2-((((4-methoxyphenyl)(phenyl)methyl)sulfinyl)methyl)thiophene], the IC50 in data set [2] (setting [7]) was 15 ± 2 µM; in data set [3] (setting [8]), over 50 µM; in data set [4] (setting [9]), over 50 µM.
For the compound `Cc1ccc([C@H](c2ccccc2)[S@@+]([O-])Cc2cccs2)cc1` [Compound 7n, (S,S)-2-(((phenyl(p-tolyl)methyl)sulfinyl)methyl)thiophene], the IC50 in data set [2] (setting [5]) is 1.63 ± 0.1 µM; in data set [3] (setting [8]) it was over 50 µM; in data set [4] (setting [6]), over 50 µM.
As for `[O-][S@@+](Cc1cccs1)[C@@H](c1ccccc1)c1ccc(Cl)cc1` [Compound 7f, (S,S)-2-((((4-chlorophenyl)(phenyl)methyl)sulfinyl)methyl)thiophene], the IC50 was 4 ± 1 µM in data set [2] (setting [7]), over 50 µM in data set [3] (setting [8]) and over 50 µM in data set [4] (setting [9]).
Turning to `[O-][S+](Cc1cccs1)C(c1ccc(F)cc1)c1ccc(Cl)cc1` (stereo not shown) [Compound 8u, 2-((((4-chlorophenyl)(4-fluorophenyl)methyl)sulfinyl)methyl)thiophene], the IC50 is 5.4 ± 1 µM in data set [2] (setting [7]), over 50 µM in data set [3] (setting [10]) and over 50 µM in data set [4] (setting [11]).

The term IC50 denotes the concentration that inhibits the measured activity by half.
